Data on seven molecules can be found in patent US10669238B2, “Irreversible bruton's tyrosine kinase inhibitor” (HEFEI INSTITUTES OF PHYSICAL SCIENCE, CHINESE ACADEMY OF …, priority 2016, dated 2020).

Experiment [1] addresses BTK WT (Homo sapiens, UniProt Q06187). Put plainly: Btk cell-free kinase assay, BTK WT protein. Format: biochemical. Conditions: compound 30 mins at room temperature, then 100 μM ATP 20 min at 37° C.; read-out: EC50 against BTK WT protein. An excerpt:
(§1) The BTK wild-type plasmid and the BTK mutant plasmid (C481S) were respectively transfected into SF9 cells (purchased from invitrogen), and after three generations of virus amplification, the P3-generation virus was used to transfect SF9 cells which were collected after 72-hour culture to obtain protein BTK WT and protein BTK C481S, which were then purified.

The target of experiment [2] is BTK protein kinase (Homo sapiens, UniProt Q06187). Nature of the experiment: In vitro enzymatic activity against BTK (ADP-Glo). Format: biochemical. Conditions: compound with BTK 4 hours at room temperature, ATP 10 μM, 37° C. 1 hour. In short, it runs like this: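 BTK (1.5 ng/μL enzyme solution) was preincubated with compound (final 10 μM to 0.003 μM) for 4 h at room temperature. Reaction ran 1 h at 37 °C with 10 μM ATP and 0.2 μg/μL poly(Glu,Tyr) 4:1 (final). ADP formed was measured by ADP-Glo luminescence, and IC50 was obtained by curve plotting.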
BTK protein kinase, sequence (Q06187 whole entry): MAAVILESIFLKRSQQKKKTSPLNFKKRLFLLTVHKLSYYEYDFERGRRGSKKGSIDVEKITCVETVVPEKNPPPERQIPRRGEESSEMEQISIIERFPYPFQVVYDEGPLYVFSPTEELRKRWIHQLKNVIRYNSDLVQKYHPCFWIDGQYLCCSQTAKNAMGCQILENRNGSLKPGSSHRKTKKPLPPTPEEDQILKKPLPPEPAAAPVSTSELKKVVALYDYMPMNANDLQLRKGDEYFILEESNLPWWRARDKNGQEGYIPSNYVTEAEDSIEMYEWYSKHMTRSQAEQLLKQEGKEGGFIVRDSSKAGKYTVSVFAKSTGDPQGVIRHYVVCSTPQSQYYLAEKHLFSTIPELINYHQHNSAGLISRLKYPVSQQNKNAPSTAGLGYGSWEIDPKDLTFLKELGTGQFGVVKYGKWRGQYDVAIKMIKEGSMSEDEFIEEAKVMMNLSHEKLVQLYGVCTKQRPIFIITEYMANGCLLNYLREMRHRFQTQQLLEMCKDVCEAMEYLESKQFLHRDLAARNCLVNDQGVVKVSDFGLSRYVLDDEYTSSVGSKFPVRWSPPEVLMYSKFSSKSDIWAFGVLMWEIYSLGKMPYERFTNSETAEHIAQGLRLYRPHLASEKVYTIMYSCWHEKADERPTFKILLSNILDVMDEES

Experiment [3] relates to phosphorylation of tyrosine Y223 on Btk. Nature of the experiment: Effects on BTK Y223 and downstream signaling pathway proteins in cells (anti-IgM stimulation). Format: cell-based, human. The following applies: Compound 1 in MEC-2, Pfeiffer, Ramos, TMD8, U2932; Compound 35 in MEC-1; 4 hours, then anti-IgM 10 mins. The text has this:
By assaying a number of cellular biochemical and functional endpoints, the properties of the compounds were further characterized. […] In this experiment, PC132765 (purchased from Shanghai Haoyuan Chemexpress Co., Ltd.), CGI11746 (purchased from Shanghai Haoyuan Chemexpress Co., Ltd.) and Compound 6 (prepared herein) were used as control (see FIGS. 2a-2f).
Effects of the compounds on phosphorylation of BTKY223, BTKY551, PLCγ1Y783, PLCγ2Y759, PLCγ2Y1217, P—NF-κB P65, P-AKT Ser473, Erk Thr202/Tyr204 and the like were determined (FIGS. 2a-2f).

For experiment [4], the target named is T1, BTK C481S (Homo sapiens, UniProt Q06187, C481S).
T1 construct: made in house; host or cells: SF9 insect cells
T1 sequence (Q06187 whole entry C481S): as the sequence (Q06187 whole entry) above, with C481S counted along it
Nature of the experiment: Btk cell-free kinase assay, BTK C481S mutant protein. The experiment is classed as biochemical. Conditions: compound 30 mins at room temperature, then 100 μM ATP 20 min at 37° C.; read-out: EC50 against BTK C481S.
From the text: as §1

The test system of experiment [5] is diffuse large B-cell lymphoma cell lines TMD8. Put plainly: Cell proliferation (Cell Titer-Glo), TMD8. The experiment is classed as cell-based. Conditions: Homo sapiens, TMD8, 72 h, read-out: Effects on cell proliferation (GI50). In general terms: ATP-based viability assays read luminescence as a measure of living cells.
From the text: The following cells were adopted in the example: acute myelocytic leukemia cell strains (acute myelocytic leukemia, AML) HL-60, B-lymphoma cell Ramos, colon cancer cells HCT116, leukemic cells K562, B-cell lymphoma cells U2932, diffuse large B-cell lymphoma cell line OCI-LY10, diffuse histiocytic lymphoma cells SU-DHL-2, diffuse large B-cell lymphoma cell lines TMD8, leukemia cell OCI-AML-3, acute promyelocytic leukemia cell line NB-4 (Lu+), MDS-RAEB (myelodysplastic syndrome—excessive blasts) cell lines SKM-1, human leukocyte leukemia cells HEL, acute myeloid leukemia cell lines (acute myelocytic leukemia, AML) U937, acute myeloid leukemia cell lines (acute myelocytic leukemia, AML) MOLM14, acute myeloid leukemia cell lines (acute myelocytic leukemia, AML) MOLM13, acute myeloid leukemia cell lines (acute myelocytic leukemia, AML) M-07e, acute myeloid leukemia cell lines (acute myelocytic leukemia, AML) MV4-11, acute myeloid leukemia cell lines (acute myelocytic leukemia, AML) MOLM16, diffuse large B-cell lymphoma cell lines Pfeiffer, multiple myeloma cell lines (multiple myeloma) RPM18226, bone marrow plasma cell tumor cells AMO-1, mouse pro-B cells BaF3, all purchased from ATCC.
In this example different concentrations (0.000508 μM, 0.00152 μM, 0.00457 μM, 0.0137 μM, 0.0411 μM, 0.123 μM, 0.370 μM, 1.11 μM, 3.33 μM, 10 μM) of Compound 1 and Compound 6 were respectively added into the above cells which were then cultured for 72 hours. The number of viable cells was determined via quantitative determination of ATP in living cells by using Cell Titer-Glo® (Promega, the USA) Chemical Luminescent Cell Viability Assay kit.

BTK WT, sequence (Q06187 whole entry): as the sequence (Q06187 whole entry) above

In general, EC50 refers to the midpoint of the concentration-response curve. A word on the IC50: it is the point on the concentration scale where inhibition reaches its midpoint. `C=CC(=O)Nc1cc(Nc2cc(-c3cccc(NC(=O)c4ccc(N(C)C)cc4)c3C)cn(C)c2=O)ccc1C(=O)N1CCOCC1` [Compound 35, N-(3-(5-((3-acrylamide-4-(morpholin-4-carbonyl)phenyl)amino)-1-methyl-6-oxo-1,6-dihydropyridin-3-yl)-2-methylphenyl)-4-(dimethylamino)benzoylamide]: the EC50 in experiment [1] was determined as 16 nM; in experiment [4] it was 186 nM. Also, the IC50 in experiment [2] (values in nM) amounted to 5 nM. The “phosphorylation of tyrosine Y223 on Btk” value in experiment [3] is “selectively and significantly inhibit phosphorylation of tyrosine Y223 on Btk”.

Consider `C=CC(=O)N1CCC[C@@H](n2nc(-c3ccc(Oc4ccccc4)cc3)c3c(N)ncnc32)C1` [PCI32765, reference compound], for which the GI50 in experiment [5] was found to be 1 nM. In turn, `C=CC(=O)Nc1cc(Nc2cc(-c3cccc(NC(=O)c4cc5c(s4)CCCC5)c3C)cn(C)c2=O)ccc1N1CCCC1` [Compound 80, N-(3-(5-((3-acrylamide-4-(pyrrolidin-1-yl)phenyl)amino)-1-methyl-6-oxo-1,6-dihydropyridin-3-yl)-2-methylphenyl)-4,5,6,7-tetrahydrobenzo[b]thiophene-2-carboxamide] showed an IC50 in experiment [2] (values in nM) of 83 nM. As for `C=CC(=O)Nc1cc(Nc2cc(-c3cccc(NC(=O)c4cc5ccccc5s4)c3C)cn(C)c2=O)ccc1N1CCC(OC)CC1` [Compound 87, N-(3-(5-((3-acrylamide-4-(4-methoxypiperidin-1-yl)phenyl)amino)-1-methyl-6-oxo-1,6-dihydropyridin-3-yl)-2-methylphenyl)benzo[b]thiophene-2-carboxamide], the IC50 in experiment [2] (value printed in nm) was found to be 126 nM. Take `Cc1c(NC(=O)c2ccc(C(C)(C)C)cc2)cccc1-c1cn(C)c(=O)c(Nc2ccc(C(=O)N3CCOCC3)cc2)n1` [CGI1746, reference compound]: the GI50 in experiment [5] amounted to 126 nM. In turn, `C=CC(=O)Nc1cc(Nc2cc(-c3cccc(NC(=O)c4ccc(C(C)(C)C)cc4)c3C)cn(C)c2=O)ccc1C(=O)NC1CC1` [Compound 46, 2-acrylamide-4-((5-(3-(4-(tert-butyl)benzamide)-2-methylphenyl)-1-methyl-2-oxo-1,2-dihydropyridin-3-yl)amino)-N-cyclopropylbenzoylamide] came in with an IC50 in experiment [2] (values in nM) of 45 nM. The same measure, in the same setting: the result for `Cc1c(NC(=O)c2ccc3c(c2)OCO3)cccc1-c1cc(Nc2ccc(C(=O)N3CCOCC3)c(NC(=O)CCl)c2)c(=O)n(C)c1` [Compound 19, N-(3-(5-((3-chloroacetamide-4-(morpholin-4-carbonyl)phenyl)amino)-1-methyl-6-oxo-1,6-dihydropyridin-3-yl)-2-methylphenyl)-benzo[d][1,3]dioxolanyl-5-carboxamide] reads 197 nM.
